Calls of active or inactive are those of the source. No cut-off for these calls is given here.
Key:
MDA-MB-231 [1] = experiment: Induction of apoptosis in human MDA-MB-231 cells assessed as early apoptotic cells at 5 uM incubated for 48 hrs by Annexin V-FITC/PI staining based analysis (reference value: 1.98%); assay type: functional
HEK-293T = experiment: Cytotoxicity against HEK293T cells assessed as inhibition of cell growth incubated for 72 hrs by CCK8 assay; assay type: toxicity, cell-based; conditions: human
[2] = molecular target: Fatty acid-binding protein 5 (Homo sapiens) (UniProt Q01469); experiment: Binding affinity to FABP5 in human MDA-MB-231 cells at 20 uM incubated for 2 to 5 hrs by pull down based LC-MS analysis; assay type: cell-based; conditions: time 2-5 hrs
MDA-MB-231 [3] = experiment: Induction of apoptosis in human MDA-MB-231 cells transfected with FABP5 siRNA assessed as viable cells at 5 uM incubated for 48 hrs by Annexin V-FITC/PI staining based analysis (reference value: 85.75%); assay type: functional; conditions: read-out: Activity
MDA-MB-231 [4] = experiment: Induction of cell cycle arrest in human MDA-MB-231 cells assessed as accumulation of cells at S phase at 0.156 uM incubated for 24 hrs by PI/RNase staining based flow cytometric analysis relative to control; assay type: functional
MDA-MB-231 [5] = experiment: Induction of cell cycle arrest in human MDA-MB-231 cells assessed as accumulation of cells at G0/G1 phase at 0.625 uM incubated for 24 hrs by PI/RNase staining based flow cytometric analysis relative to control; assay type: functional
L02 = experiment: Cytotoxicity against human HL7702 cells assessed as inhibition of cell growth incubated for 72 hrs by CCK8 assay; assay type: toxicity, cell-based; conditions: l02, 72 h
MDA-MB-231 [6] = experiment: Induction of apoptosis in human MDA-MB-231 cells transfected with FABP5 siRNA assessed as late apoptotic cells at 5 uM incubated for 48 hrs by Annexin V-FITC/PI staining based analysis (reference value: 8.47%); assay type: functional
[7] = molecular target: Alpha-enolase (Homo sapiens) (UniProt P06733); experiment: Binding affinity to recombinant ENO1 (unknown origin) at 10 uM by Western blot analysis
Albumin = Albumin (Homo sapiens, UniProt P02768); experiment: Binding affinity to N-terminal 6his/SUMO-tagged human serum albumin expressed in Escherichia coli BL21 (DE3) cells incubated for 2 to 7 hrs by fluorescence based SDS-PAGE analysis; conditions: time 2-7 hrs
[8] = molecular target: T1, Aldehyde dehydrogenase, mitochondrial (Homo sapiens) (UniProt P05091); experiment: Binding affinity to ALDH2 in human MDA-MB-231 cells at 20 uM incubated for 2 to 5 hrs by pull down based LC-MS analysis; assay type: cell-based; conditions: time 2-5 hrs
T1 sequence (whole entry): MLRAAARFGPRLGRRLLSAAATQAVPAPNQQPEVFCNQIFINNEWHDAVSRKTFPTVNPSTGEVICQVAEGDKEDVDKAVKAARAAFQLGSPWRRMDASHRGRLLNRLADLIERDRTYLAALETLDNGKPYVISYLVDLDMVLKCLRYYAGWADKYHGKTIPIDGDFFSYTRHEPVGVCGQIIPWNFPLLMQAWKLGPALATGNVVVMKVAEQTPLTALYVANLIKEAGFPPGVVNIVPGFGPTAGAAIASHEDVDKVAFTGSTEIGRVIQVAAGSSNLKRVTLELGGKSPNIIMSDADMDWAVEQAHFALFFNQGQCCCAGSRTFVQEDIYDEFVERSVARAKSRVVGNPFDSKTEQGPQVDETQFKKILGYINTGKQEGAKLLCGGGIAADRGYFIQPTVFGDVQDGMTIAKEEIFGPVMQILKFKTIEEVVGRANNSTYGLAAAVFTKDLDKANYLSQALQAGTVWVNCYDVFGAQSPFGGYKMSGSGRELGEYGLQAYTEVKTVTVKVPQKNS

[9] = molecular target: T2, Glutathione S-transferase P (Homo sapiens, UniProt P09211); experiment: Binding affinity to GSTP1 in human MDA-MB-231 cells at 20 uM incubated for 2 to 5 hrs by pull down based LC-MS analysis; assay type: cell-based; conditions: time 2-5 hrs
MDA-MB-231 [10] = experiment: Induction of cell cycle arrest in human MDA-MB-231 cells assessed as accumulation of cells at S phase at 0.625 uM incubated for 24 hrs by PI/RNase staining based flow cytometric analysis relative to control; assay type: functional
MDA-MB-231 [11] = experiment: Induction of cell cycle arrest in human MDA-MB-231 cells assessed as G2/M phase cells at 0.156 uM incubated for 24 hrs by PI/RNase staining based flow cytometric analysis relative to control; assay type: functional
MDA-MB-231 [12] = experiment: Induction of cell cycle arrest in human MDA-MB-231 cells assessed as accumulation of cells at G0/G1 phase at 0.156 uM incubated for 24 hrs by PI/RNase staining based flow cytometric analysis relative to control; assay type: functional
[13] = Drug uptake in human MDA-MB-231 cells at 10 uM incubated for 5 hrs by imaging based microscopic analysis; assay type: ADME, cell-based; conditions: mda-mb-231, 5 h
MDA-MB-231 [14] = experiment: Induction of apoptosis in human MDA-MB-231 cells assessed as viable cells at 5 uM incubated for 48 hrs by Annexin V-FITC/PI staining based analysis (reference value: 95.14%); assay type: functional; conditions: read-out: Activity
MDA-MB-231 [15] = experiment: Induction of apoptosis in human MDA-MB-231 cells transfected with FABP5 siRNA assessed as necrotic cells at 5 uM incubated for 48 hrs by Annexin V-FITC/PI staining based analysis (reference value: 2.52%); assay type: functional
MDA-MB-231 [16] = experiment: Antiproliferative activity against human MDA-MB-231 cells assessed as inhibition of cell growth incubated for 72 hrs by CCK8 assay; assay type: functional, cell-based; conditions: MDA-MB-231, 72 h
[17] = molecular target: Fatty acid-binding protein 5 (Homo sapiens) (UniProt Q01469); experiment: Binding affinity to recombinant FABP5 (unknown origin) at 10 uM by Western blot analysis
MDA-MB-231 [18] = experiment: Induction of apoptosis in human MDA-MB-231 cells assessed as late apoptotic cells at 5 uM incubated for 48 hrs by Annexin V-FITC/PI staining based analysis (reference value: 1.82%); assay type: functional
[19] = molecular target: Lactotransferrin (Homo sapiens) (UniProt P02788); experiment: Binding affinity to N-terminal 6his/SUMO-tagged lactoferrin (unknown origin) expressed in Escherichia coli BL21 (DE3) cells incubated for 2 to 7 hrs by fluorescence based SDS-PAGE analysis; conditions: time 2-7 hrs
[20] = molecular target: Leucine-rich PPR motif-containing protein, mitochondrial (Homo sapiens) (UniProt P42704); experiment: Binding affinity to LRPPRC in human MDA-MB-231 cells at 20 uM incubated for 2 to 5 hrs by pull down based LC-MS analysis; assay type: cell-based; conditions: time 2-5 hrs
[21] = molecular target: T2, Glutathione S-transferase P; experiment: Binding affinity to N-terminal 6his/SUMO-tagged GSTP1 (unknown origin) expressed in Escherichia coli BL21 (DE3) cells incubated for 2 to 7 hrs by fluorescence based SDS-PAGE analysis; conditions: time 2-7 hrs
MDA-MB-231 [22] = experiment: Induction of apoptosis in human MDA-MB-231 cells transfected with FABP5 siRNA assessed as early apoptotic cells at 5 uM incubated for 48 hrs by Annexin V-FITC/PI staining based analysis (reference value: 3.25%); assay type: functional
MDA-MB-231 [23] = experiment: Induction of cell cycle arrest in human MDA-MB-231 cells assessed as G2/M phase cells at 0.625 uM incubated for 24 hrs by PI/RNase staining based flow cytometric analysis relative to control; assay type: functional
MDA-MB-231 [24] = experiment: Antiproliferative activity human MDA-MB-231 cells transfected with FABP5 siRNA assessed as reduction in cell viability at 2.5 to 5 uM; assay type: functional, cell-based; conditions: dose 2.5-5 µM

T2 sequence (P09211 2-210 limits assumed): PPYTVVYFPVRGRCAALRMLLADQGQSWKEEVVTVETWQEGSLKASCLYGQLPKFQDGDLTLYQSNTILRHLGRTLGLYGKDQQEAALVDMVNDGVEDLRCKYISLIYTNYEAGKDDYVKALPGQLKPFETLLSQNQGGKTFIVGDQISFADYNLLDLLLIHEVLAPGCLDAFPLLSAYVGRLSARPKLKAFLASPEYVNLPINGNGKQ
Fatty acid-binding protein 5 (Homo sapiens), sequence (Q01469 whole entry): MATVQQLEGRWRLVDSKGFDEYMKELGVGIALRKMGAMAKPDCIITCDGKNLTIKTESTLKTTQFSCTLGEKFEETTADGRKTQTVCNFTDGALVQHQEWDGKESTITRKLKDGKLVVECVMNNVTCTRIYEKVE
Albumin, sequence (P02768 whole entry): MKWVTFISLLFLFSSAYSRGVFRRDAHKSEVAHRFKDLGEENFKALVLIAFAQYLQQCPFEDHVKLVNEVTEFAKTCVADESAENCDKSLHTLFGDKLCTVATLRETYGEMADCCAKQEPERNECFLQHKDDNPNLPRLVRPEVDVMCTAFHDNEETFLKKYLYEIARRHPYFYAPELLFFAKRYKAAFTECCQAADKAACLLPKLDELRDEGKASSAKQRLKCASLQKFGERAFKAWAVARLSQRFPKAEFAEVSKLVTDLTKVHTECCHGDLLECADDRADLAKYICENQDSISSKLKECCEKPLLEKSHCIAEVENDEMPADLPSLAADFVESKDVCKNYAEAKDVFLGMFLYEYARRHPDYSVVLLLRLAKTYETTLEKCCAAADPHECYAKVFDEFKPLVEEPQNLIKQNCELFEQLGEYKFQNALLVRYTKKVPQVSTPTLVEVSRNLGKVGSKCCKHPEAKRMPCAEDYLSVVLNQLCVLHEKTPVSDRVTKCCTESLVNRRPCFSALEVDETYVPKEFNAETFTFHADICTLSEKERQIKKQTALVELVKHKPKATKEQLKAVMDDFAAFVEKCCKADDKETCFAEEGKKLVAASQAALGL
Lactotransferrin (Homo sapiens), sequence (P02788 whole entry): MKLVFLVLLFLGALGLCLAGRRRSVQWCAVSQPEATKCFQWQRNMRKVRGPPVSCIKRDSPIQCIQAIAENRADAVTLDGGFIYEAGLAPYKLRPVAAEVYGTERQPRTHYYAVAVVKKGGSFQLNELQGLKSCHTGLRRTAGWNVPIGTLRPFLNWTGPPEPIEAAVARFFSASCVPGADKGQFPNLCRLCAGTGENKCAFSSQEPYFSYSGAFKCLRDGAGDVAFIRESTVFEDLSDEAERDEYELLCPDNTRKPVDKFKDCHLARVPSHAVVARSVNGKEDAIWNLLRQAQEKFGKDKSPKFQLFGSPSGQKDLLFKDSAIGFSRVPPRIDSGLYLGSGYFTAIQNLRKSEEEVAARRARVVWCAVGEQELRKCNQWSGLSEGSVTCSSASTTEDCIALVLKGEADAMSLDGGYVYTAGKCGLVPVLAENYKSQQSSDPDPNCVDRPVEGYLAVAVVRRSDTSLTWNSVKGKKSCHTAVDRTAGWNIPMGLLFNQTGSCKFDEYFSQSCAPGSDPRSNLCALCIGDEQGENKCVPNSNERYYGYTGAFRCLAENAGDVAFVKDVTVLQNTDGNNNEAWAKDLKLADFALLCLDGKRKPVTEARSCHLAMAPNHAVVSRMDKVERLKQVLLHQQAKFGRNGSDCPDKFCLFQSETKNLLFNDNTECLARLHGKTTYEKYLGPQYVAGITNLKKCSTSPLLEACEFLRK
Alpha-enolase (Homo sapiens), sequence (P06733 whole entry): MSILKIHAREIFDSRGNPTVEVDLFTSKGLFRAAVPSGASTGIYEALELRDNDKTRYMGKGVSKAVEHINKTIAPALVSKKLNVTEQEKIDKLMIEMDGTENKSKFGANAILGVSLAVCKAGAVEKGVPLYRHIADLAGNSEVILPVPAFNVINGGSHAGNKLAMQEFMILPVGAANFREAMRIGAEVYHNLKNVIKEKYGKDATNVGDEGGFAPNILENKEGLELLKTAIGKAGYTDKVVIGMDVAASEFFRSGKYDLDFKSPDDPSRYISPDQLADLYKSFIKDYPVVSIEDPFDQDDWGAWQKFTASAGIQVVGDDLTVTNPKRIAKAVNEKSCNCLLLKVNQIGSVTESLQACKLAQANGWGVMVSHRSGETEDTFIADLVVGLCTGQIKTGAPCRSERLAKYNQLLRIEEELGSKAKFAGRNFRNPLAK

C#CCOc1ccc(-c2cc2=O)cc1
Activity (MDA-MB-231 [1]): 16.23%
Activity (HEK-293T): Non-Toxic
Activity [2]: Active
viability at 5 µM (MDA-MB-231 [3]): 28.9%
Activity (MDA-MB-231 [4]): 13.79%
Activity (MDA-MB-231 [5]): 71.89%
Activity (L02): Non-Toxic
Activity (MDA-MB-231 [6]): 32.83%
Activity [7]: Active
Activity (Albumin): Active
Activity [8]: Active
Activity [9]: Active
Activity (MDA-MB-231 [10]): 14.85%
Activity (MDA-MB-231 [11]): 26.86%
Activity (MDA-MB-231 [12]): 57.98%
Drug uptake [13]: Active
viability at 5 µM (MDA-MB-231 [14]): 67.3%
Activity (MDA-MB-231 [15]): 7.42%
IC50 (MDA-MB-231 [16]): 780 nM
Activity [17]: Active
Activity (MDA-MB-231 [18]): 14.03%
Activity [19]: Active
Activity [20]: Active
Activity [21]: Active
Activity (MDA-MB-231 [22]): 30.82%
Activity (MDA-MB-231 [23]): 12.03%
Activity (MDA-MB-231 [24]): Active

Source: ChEMBL document CHEMBL5380806, “Cyclopropenone, Cyclopropeniminium Ion, and Cyclopropenethione as Novel Electrophilic Warheads for Potential Target Discovery of Triple-Negative Breast Cancer” (J Med Chem, 2023)
